Positions of bridges follow the written chain, without caps; N, C: chain ends. Non-standard residues stand in square brackets, D forms with d. Residues, ends and D or L forms follow the SMILES beside them.
Assays:
intact rats = assay: Natriuretic and diuretic effects in intact rats (bolus injection); assay type: in vivo, rat; details: dose 3670 pmol/kg
Method: Synthetic ANVP compounds […] hANVP(127-151) were also found to be natriuretic in the intact rat. These compounds were administered as a bolus injection to Inactin anesthetized rats (100 mg/kg, average weight 399 g) which were maintained on a constant infusion of normal saline at 2.2 ml/hr. […] Data are expressed as mean±SE.

[1] = system: precontracted rabbit or rat aortic preparations; assay: Vasorelaxant potency on precontracted aortic rings; details: for IC50: thoracic aortic segments precontracted with histamine or norepinephrine, read-out: IC50 (concentration producing half-maximal relaxation of the precontracted tissue)
Method: Synthetic ANVP compounds were compared to partially purified (gel filtration step) and purified (HPLC) native ANVP compounds (See FIGS. 3A-D) for their ability to relax histamine-contracted aortic rings. Rings were suspended in 10 ml aerated Kreb's buffer under 1.5 gm passive tension. Rings were precontracted with 5 X 10^-6 M histamine, washed and allowed to return to baseline tension, as described ([…]., supra). Increasing amounts of purified or synthetic ANVP compounds were then added in cumulative fashion. […] The relaxation effects of various ANVP compounds on precontracted rabbit or rat aortic preparations are shown in Table III. | Thoracic aortic segments were precontracted with histamine or | norepinephrine as previously described. Various doses of ANVP compounds | were then added and relaxation of the precontracted state was monitored. | Data are expressed as the concentration of each peptide required to | produce a halfmaximal relaxation of the precontracted tissue (IC50).

IC50 [1] | SMILES | Peak Na+ Excr. (intact rats) | Peak Urine Vol. (intact rats) | vasorelaxant potency in words ([1]; precontracted vascular preparations)
 | CC[C@H](C)[C@@H]1NC(=O)[C@H](CCCNC(=N)N)NC(=O)[C@H](CC(=O)O)NC(=O)[C@H]([C@@H](C)CC)NC(=O)[C@H](CCCNC(=N)N)NC(=O)CNC(=O)[C@@H](C)NC(=O)[C@H](Cc2ccccc2)NC(=O)[C@@H](NC(=O)[C@H](CO)NC(=O)[C@H](CO)NC(=O)[C@@H](N)CCCNC(=N)N)CSSC[C@@H](C(=O)N[C@@H](CC(N)=O)C(=O)N[C@@H](CO)C(=O)N[C@@H](Cc2ccccc2)C(=O)N[C@@H](CCCNC(=N)N)C(=O)N[C@@H](Cc2ccc(O)cc2)C(=O)O)NC(=O)CNC(=O)[C@H](CC(C)C)NC(=O)[C@@H](C)NC(=O)[C@H](CO)NC(=O)[C@H](CCC(N)=O)NC(=O)[C@H](C)NC(=O)CNC1=O [[D-Ala^131][D-Ala^142]rANVP(126-150), H-Arg-Ser-Ser-Cys-Phe-[D-Ala]Gly-Arg-Ile-Asp-Arg-Ile-Gly-Ala-Gln-Ser-[D-Ala]-Leu-Gly-Cys-Asn-Ser-Phe-Arg-Tyr-OH] (H-RSSCF[dA]GRIDRIGAQS[dA]LGCNSFRY-OH; disulfide 4-20) | 140 ± 8 µmol/min | 30 ± 7 µL/min | 
0.9 nM | CC[C@H](C)[C@@H]1NC(=O)[C@H](CCCNC(=N)N)NC(=O)[C@H](CC(=O)O)NC(=O)[C@H]([C@@H](C)CC)NC(=O)[C@H](CCCNC(=N)N)NC(=O)CNC(=O)[C@@H](C)NC(=O)[C@H](Cc2ccccc2)NC(=O)[C@@H](NC(=O)[C@H](CO)NC(=O)[C@H](CO)NC(=O)[C@@H](N)CCCNC(=N)N)CSSC[C@@H](C(=O)N[C@@H](CC(N)=O)C(=O)N[C@@H](CO)C(=O)N[C@@H](Cc2ccccc2)C(=O)N[C@@H](CCCNC(=N)N)C(=O)N[C@@H](Cc2ccc(O)cc2)C(=O)O)NC(=O)CNC(=O)[C@H](CC(C)C)NC(=O)CNC(=O)[C@H](CO)NC(=O)[C@H](CCC(N)=O)NC(=O)[C@H](C)NC(=O)CNC1=O [[D-Ala^131]rANVP(126-150), H-Arg-Ser-Ser-Cys-Phe-[D-Ala]-Gly-Arg-Ile-Asp-Arg-Ile-Gly-Ala-Gln-Ser-Gly-Leu-Gly-Cys-Asn-Ser-Phe-Arg-Tyr-OH] |  |  | most potent
 | CC[C@H](C)[C@@H]1NC(=O)[C@H](CCCNC(=N)N)NC(=O)[C@H](CC(=O)O)NC(=O)[C@H]([C@@H](C)CC)NC(=O)[C@H](CCCNC(=N)N)NC(=O)[C@@H](C)NC(=O)CNC(=O)[C@H](Cc2ccccc2)NC(=O)[C@@H](NC(=O)[C@H](CO)NC(=O)[C@H](CO)NC(=O)[C@@H](N)CCCNC(=N)N)CSSC[C@@H](C(=O)N[C@@H](CC(N)=O)C(=O)N[C@@H](CO)C(=O)N[C@@H](Cc2ccccc2)C(=O)N[C@@H](CCCNC(=N)N)C(=O)N[C@@H](Cc2ccc(O)cc2)C(=O)O)NC(=O)CNC(=O)[C@H](CC(C)C)NC(=O)CNC(=O)[C@H](CO)NC(=O)[C@H](CCC(N)=O)NC(=O)[C@H](C)NC(=O)CNC1=O [[D-Ala^132]rANVP(126-150), H-Arg-Ser-Ser-Cys-Phe-Gly-[D-Ala]-Arg-Ile-Asp-Arg-Ile-Gly-Ala-Gln-Ser-Gly-Leu-Gly-Cys-Asn-Ser-Phe-Arg-Tyr-OH] | 20 ± 5 µmol/min | 89 µL/min | 
13 nM | CC[C@H](C)[C@@H]1NC(=O)[C@H](CCCNC(=N)N)NC(=O)[C@H](CC(=O)O)NC(=O)[C@@H](C(C)C)NC(=O)[C@H](CCCNC(=N)N)NC(=O)CNC(=O)CNC(=O)[C@H](Cc2ccccc2)NC(=O)[C@@H](NC(=O)[C@H](CO)NC(=O)[C@H](CO)NC(=O)[C@@H](N)CCCNC(=N)N)CSSC[C@@H](C(=O)N[C@@H](CC(N)=O)C(=O)N[C@@H](CO)C(=O)N[C@@H](Cc2ccccc2)C(=O)N[C@@H](CCCNC(=N)N)C(=O)N[C@@H](Cc2ccc(O)cc2)C(=O)O)NC(=O)CNC(=O)[C@H](CC(C)C)NC(=O)CNC(=O)[C@H](CO)NC(=O)[C@H](CCC(N)=O)NC(=O)[C@H](C)NC(=O)CNC1=O [[D-Val^134]rANVP(126-150), H-Arg-Ser-Ser-Cys-Phe-Gly-Arg-[D-Val]-Asp-Arg-Ile-Gly-Ala-Gln-Ser-Gly-Leu-Gly-Cys-Asn-Ser-Phe-Arg-Tyr-OH] |  |  | 
